Tested on: mature atrophic post-Acne facial scarring
Assay: randomized, triple-blind study in mature atrophic post-Acne facial scarring (Example 7)
Assay type: in vivo, human
Design: transient reduction in vision (adverse event, one patient): unit not given here
Description: A randomized, triple-blind study was conducted on 35 patients in two sites in India (Amritsar and Faridkot). Ethnic skin patients (Fitzpatrick 4-5) with mature atrophic post-Acne facial scarring (scar age >2 years) were randomly assigned to one of four study arms: topical Topiramate 5.0% (n=10), topical Topiramate 2.5% (n=9), oral Topiramate 25 mg (n=8) and topical placebo (n=7). Patients applied the topical formulation once a day on both cheeks for 3 months. Clinical assessment was performed at 6 weeks and 3 months using a visual analog scale (VAS) by the patients and 3 independent observers (2 plastic surgeons and 1 general surgeon) who scored side-by-side cheek photos (before and after treatment).
Thirty five patients completed the study, and a total of 57 cheeks (topical Topiramate 5%—n=18; topical Topiramate 2.5%—n=19; oral Topiramate—n=13; topical Placebo—n=7) were evaluated and scored.

CC1(C)O[C@@H]2[C@@H](CO[C@@]3(COS(N)(=O)=O)OC(C)(C)O[C@@H]23)O1 [Topiramate]
advantage of the study group over the control (topical placebo) (day 42): 95%
improvement (visual analog scale, patients and 3 independent observers) (day 42, once a day): 13.91%
advantage of the study group over the control (topical placebo) (day 90): 102%
improvement (visual analog scale, patients and 3 independent observers) (day 90, once a day): 34.69%
transient reduction in vision (adverse event, one patient) (from 20/20, within 2 days from starting 25 mg oral, returned to 20/20 within 7 days from stopping): −5.00
